Experimental findings from patent US11980188B2, “Spiro cyclohexanedione derivates as herbicides” (SYNGENTA PARTICIPATIONS AG, priority 2018, dated 2024) are described below.

The subject of assay [1] is Alopecurus myosuroides (ALOMY). The experiment in a line: Glasshouse herbicide test, pre- and post-emergence, percentage damage. Type of assay: in vivo. As to conditions: 250 g/h, evaluated after 13 days, percentage damage on five point scale; for ALOMY POST: post-emergence; for ALOMY PRE: pre-emergence. Put shortly: (§1)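 Pots of the weeds sprayed either 1 day after sowing (pre-emergence) or after 8 days' growth (post-emergence), at 250 g/h in acetone/water with 0.5% Tween 20. Grown in a glasshouse at 24/16° C. day/night with 14 h light and 65% humidity. Damage scored 13 days later on a 1–5 scale (5=80-100%, 1=0-19%).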

In assay [2] the test system is Avena fatua (AVEFA). Described as above. Type of assay: in vivo. The note with it: 250 g/h, evaluated after 13 days, percentage damage on five point scale; for AVEFA POST: post-emergence; for AVEFA PRE: pre-emergence. Summed up:
as §1

Assay [3] deals with Echinochloa crus-galli (ECHCG). Described as above. Type of assay: in vivo. The note with it: 250 g/h, evaluated after 13 days, percentage damage on five point scale; for ECHCG PRE: pre-emergence; for ECHCG POST: post-emergence. Put shortly: as §1
Assay [4] relates to Lolium perenne (LOLPE). Described as above. Type of assay: in vivo. The note with it: 250 g/h, evaluated after 13 days, percentage damage on five point scale; for LOLPE POST: post-emergence; for LOLPE PRE: pre-emergence. Summed up: as §1
Assay [5] has as its system Setaria faberi (SETFA). The assay is described as above. The note with it: 250 g/h, evaluated after 13 days, percentage damage on five point scale; for SETFA POST: post-emergence; for SETFA PRE: pre-emergence. It counts as in vivo. Summed up:
as §1

Assay [6] has as its system ALOMY. Briefly: Post-emergence comparison with comparator C1 at indicated application rates. It counts as in vivo, Alopecurus myosuroides. The procedure:
(§2) Seeds of a variety of test species are sown in standard soil in pots (Lolium perenne (LOLPE), Setaria faberi (SETFA), Alopecurus myosuroides (ALOMY), Echinochloa crus-galli (ECHCG), Avena fatua (AVEFA)). After cultivation for one day (pre-emergence) or after 8 days cultivation (post-emergence) under controlled conditions in a glasshouse (at 24/16° C., day/night; 14 hours light; 65% humidity), the plants are sprayed with an aqueous spray solution derived from the formulation of the technical active ingredient in acetone/water (50:50) solution containing 0.5% Tween 20 (polyoxyethelyene sorbitan monolaurate, CAS RN 9005-64-5). Compounds are applied at […]. The test plants are then grown in a glasshouse under controlled conditions in a glasshouse (at 24/16° C., day/night; 14 hours light; 65% humidity) and watered twice daily. After 13 days for pre and post-emergence, the test is evaluated for the percentage damage caused to the plant. The biological activities are shown in the following table on a five point scale (5=80-100%; 4=60-79%; 3=40-59%; 2=20-39%; 1=0-19%).
(§3) Using procedures outlines above, weed species ALOMY, AVEFA & LOLPE are treated post-emergence with compound A4 of the present invention or comparator compound C1 (Compound T-26 from WO2008/110308) at the application rates indicated. The test is evaluated for the percentage damage caused to the plant.

Assay [7] relates to AVEFA. The description is as above. Type of assay: in vivo, Avena fatua. The procedure: as §2, §3
The test system of assay [8] is LOLPE. The assay is described as above. Type of assay: in vivo, Lolium perenne. The method, then: as §2, §3
Assay [9] has as its system weed species ALOMY, AVEFA & LOLPE. The experiment in a line: Post-emergence comparison with comparator C1, overall conclusion. It counts as in vivo. The note with it: 63 and 16 g/ha, Table B2. The method, then: as §2, §3

Each structure is given as a SMILES string.

Regarding `CC(=O)N1CCC2(CC1)CC(=O)C(c1c(C)cc(-c3ncc(F)cn3)cc1C)C(=O)C2` [Compound A13, 3-acetyl-9-[4-(5-fluoropyrimidin-2-yl)-2,6-dimethyl-phenyl]-3-azaspiro[5.5]undecane-8,10-dione], in assay [1], the “ALOMY POST” value is listed as 5 (5=80-100%) and the “ALOMY PRE” value is 5 (5=80-100%). Besides, in [2], the “AVEFA POST” value was 5 (5=80-100%) and the “AVEFA PRE” value is given as 5 (5=80-100%). Also, the “ECHCG PRE” value in assay [3] is recorded as 5 (5=80-100%). In assay [4], the “LOLPE POST” value is 5 (5=80-100%) and the “LOLPE PRE” value is recorded as 5 (5=80-100%). For the same compound, in assay [5], the “SETFA POST” value is listed as 5 (5=80-100%) and the “SETFA PRE” value was 5 (5=80-100%). The ALOMY percentage damage in assay [6] (rate 16 g/ha) amounted to 90%. Besides, in assay [6] (rate 63 g/ha), the ALOMY percentage damage worked out at 100%. In [7] (rate 16 g/ha), this compound showed an AVEFA percentage damage of 90%. In addition, the AVEFA percentage damage in assay [7] (rate 63 g/ha) was found to be 100%. In addition, in [8] (rate 16 g/ha), the LOLPE percentage damage is listed as 70%. The compound further returned an LOLPE percentage damage in assay [8] (rate 63 g/ha) of 90%. Also, the “weed control vis-à-vis prior art compound C1” value in [9] was “improved weed control”.
Turning to `COc1cc(-c2ccc(F)cc2)cc(OC)c1C1C(=O)CC2(CCN(OC)CC2)CC1=O` [Compound A7], in assay [1], the “ALOMY POST” value was 5 (5=80-100%) and the “ALOMY PRE” value was 5 (5=80-100%). For the same compound, in assay [2], the “AVEFA POST” value was 5 (5=80-100%) and the “AVEFA PRE” value is recorded as 5 (5=80-100%). In addition, in [3], the “ECHCG POST” value is listed as 5 (5=80-100%) and the “ECHCG PRE” value is 5 (5=80-100%). Moreover, in assay [4], the “LOLPE POST” value is 5 (5=80-100%) and the “LOLPE PRE” value is on record as 5 (5=80-100%). For the same compound, in assay [5], the “SETFA POST” value was 5 (5=80-100%) and the “SETFA PRE” value is 5 (5=80-100%). Besides, the ALOMY percentage damage in [6] (rate 16 g/ha) worked out at 80%. Further, the ALOMY percentage damage in assay [6] (rate 63 g/ha) amounted to 100%. In assay [7] (rate 16 g/ha), this compound showed an AVEFA percentage damage of 100%. In [7] (rate 63 g/ha), this compound had an AVEFA percentage damage of 100%. The LOLPE percentage damage in assay [8] (rate 16 g/ha) came to 90%. Besides, the LOLPE percentage damage in assay [8] (rate 63 g/ha) is 100%. The “weed control vis-à-vis prior art compound C1” value in assay [9] is on record as “improved weed control”.
Consider `Cc1cc(C)c(C2C(=O)CC3(CCOCC3)CC2=O)c(C)c1` [Compound C1, reference compound], for which the ALOMY percentage damage in [6] (rate 16 g/ha) was 20%; in assay [6] (rate 63 g/ha) it was 80%. For the same compound, the figures for the AVEFA percentage damage in assay [7] (rate 16 g/ha) and in assay [7] (rate 63 g/ha) were 20% and 70%, respectively. The LOLPE percentage damage in [8] (rate 16 g/ha) came out at 30%; in [8] (rate 63 g/ha) it was 60%.
Take `CC(=O)N1CCC2(CC1)CC(=O)C(c1c(C)cc(-c3ncc(Cl)cn3)cc1C)C(=O)C2` [Compound A51]: in assay [1], the “ALOMY POST” value is 5 (5=80-100%) and the “ALOMY PRE” value is on record as 5 (5=80-100%). Moreover, in assay [2], the “AVEFA POST” value is given as 5 (5=80-100%) and the “AVEFA PRE” value is reported as 5 (5=80-100%). In [3], the “ECHCG POST” value was 5 (5=80-100%) and the “ECHCG PRE” value was 5 (5=80-100%). In [4], the “LOLPE POST” value is on record as 5 (5=80-100%) and the “LOLPE PRE” value is recorded as 5 (5=80-100%). Also, in assay [5], the “SETFA POST” value is reported as 5 (5=80-100%) and the “SETFA PRE” value is on record as 5 (5=80-100%).
Turning to `COc1cc(-c2ccc(F)cc2)cc(OC)c1C1C(=O)CC2(CCN(C(C)=O)CC2)CC1=O` [Compound A20], in assay [1], the “ALOMY POST” value is recorded as 5 (5=80-100%) and the “ALOMY PRE” value is reported as 5 (5=80-100%). Further, in [2], the “AVEFA POST” value is on record as 5 (5=80-100%) and the “AVEFA PRE” value was 5 (5=80-100%). For the same compound, in [3], the “ECHCG POST” value is given as 5 (5=80-100%) and the “ECHCG PRE” value is given as 5 (5=80-100%). In addition, in assay [4], the “LOLPE POST” value is listed as 5 (5=80-100%) and the “LOLPE PRE” value is 5 (5=80-100%). In [5], the “SETFA POST” value is given as 5 (5=80-100%) and the “SETFA PRE” value is recorded as 5 (5=80-100%).
